This passage reports viability results from paper PMC12040169 (PLOS Biology, 2025).

Broadly, the viability is a read-out of living cells in per cent, often relative to untreated cells.

Each structure is given as a SMILES string.

This series in a line: in vitro. As to conditions: human, hela cells, % viability.
For the compound `COc1cc([N+](=O)[O-])c2[nH]c(C(=O)O)c(CCNC(C)=O)c2c1` [CBK260895], the viability at 28.5 h, 10 µM was 105%.

For the compound `OCC(O)CN1CCc2ccccc21` (centres unmarked) [CBK260896], the viability at 28.5 h, 10 µM was determined as 101%. Next, `O=C(O)CC[n+]1c(/C=C/Nc2ccccc2)oc2ccccc21` [CBK260898B]: 93.3%; `CC/C(=C/c1sc2ccc3ccccc3c2[n+]1CCCS(=O)(=O)[O-])SC` [CBK260901]: 104%. Next, `O=C(O)CN(Cc1ccccc1)Cc1ccccc1` [CBK260903]: 104%; `O=C(O)C(Cc1ccccc1)N1C(=O)c2ccccc2C1=O` (centres unmarked) [CBK260904]: 97.6%; `O=C(O)C(=C/C=C/Br)C(=O)O` [CBK260906]: 92.6%. Consider `COc1ccc(N2C(=O)CC(N3CCN(C4CC(=O)N(c5ccc(OC)cc5)C4=O)CC3)C2=O)cc1` (centres unmarked) [CBK260907], for which the viability at 28.5 h, 10 µM stood at 88.2%.

As to `COc1ccc(C2NC(C(=O)O)CS2)c(OC)c1` (centres unmarked) [CBK260908], the viability at 28.5 h, 10 µM stood at 99.2%. Next, `O=C(O)C1CSC(c2ccc([N+](=O)[O-])cc2)N1` (centres unmarked) [CBK260909]: 103%; `Cc1cc(C)nc(NC(=O)NS(=O)(=O)Nc2ccccc2Cl)n1` [CBK260912]: 102%. As for `NCCC(O)(P(=O)(O)O)P(=O)(O)O` [CBK260913], the viability at 28.5 h, 10 µM turned out to be 97.6%. As to `O=P(O)(CN1CCOCC1)CN1CCOCC1` [CBK260914], the viability at 28.5 h, 10 µM came to 97.6%.

Regarding `Cc1cccc(C)c1NC(=O)c1nccnc1C(=O)O` [CBK260915], the viability at 28.5 h, 10 µM came out at 97%. Next, `O=C(NCc1c(OC(=O)c2cccc([N+](=O)[O-])c2)ccc2ccccc12)c1ccccc1` [CBK260919]: 81.1%.

For the compound `O=C(NCc1c(O)c(Cl)cc(Cl)c1Cl)c1ccccc1` [CBK260920], the viability at 28.5 h, 10 µM stood at 94.2%. Take `NC(=O)N/N=C/c1ccncc1` [CBK260922]: the viability at 28.5 h, 10 µM was 107%. As for `O=C(O)/C=N/NC(=O)c1ccco1` [CBK260923], the viability at 28.5 h, 10 µM was determined as 89.5%. In the case of `Cc1ccc(CCC(=O)NNc2ccccc2)o1` [CBK260924], the viability at 28.5 h, 10 µM was found to be 90.5%. The result for `CO/N=C(/C(=O)O)c1cn2cc(Br)ccc2n1` [CBK260925G] reads 87.2%; that for `C[N+](C)(C)c1ccc(C(=O)O)cc1` [CBK260929B], 90%. The result for `CCC1=NN(c2ccccc2)C(=O)C(CC(=O)Nc2ccccc2)c2cc(OC)c(OC)cc21` (centres unmarked) [CBK260938] reads 89%. On to `O=C(O)C1Cc2c([nH]c3ccccc23)C(c2cc(Br)ccc2O)N1` (centres unmarked) [CBK260946], for which the viability at 28.5 h, 10 µM turned out to be 88.1%.

With `Cc1sc2ccc(-c3ccccc3)cc2[n+]1CCCS(=O)(=O)[O-]` [CBK260947], the viability at 28.5 h, 10 µM stood at 90.7%.

Take `CCO/C(C)=C/c1sc2ccc3ccccc3c2[n+]1CCCS(=O)(=O)[O-]` [CBK260948]: the viability at 28.5 h, 10 µM worked out at 95.1%. The result for `Cc1nc2cc(C(=O)O)ccc2n1CCO` [CBK260949] reads 106%; that for `Cc1c[n+]2ccsc2n1Cc1ccccc1C#N` [CBK260951B], 116%.

On to `O=C1/C(=C2/Sc3ccccc3N2CCCS(=O)(=O)O)SC(=S)N1c1ccccc1` [CBK260954G], for which the viability at 28.5 h, 10 µM was found to be 94.5%. As to `O=C(O)CCC(CCC(=O)O)([N+](=O)[O-])[N+](=O)[O-]` [CBK260956], the viability at 28.5 h, 10 µM worked out at 93.9%. On to `O=C(CNC(=O)c1ccccc1)N/N=C/c1ccc(Br)cc1` [CBK260957], for which the viability at 28.5 h, 10 µM stood at 103%. Take `CC(C)(c1ccc(Oc2cccc(N)c2)cc1)c1ccc(Oc2cccc(N)c2)cc1` [CBK260958]: the viability at 28.5 h, 10 µM is 109%. The result for `O=C(O)c1ccc(Oc2ccc([N+](=O)[O-])cc2)cc1C(=O)O` [CBK260961] reads 89%. For `O=C1c2ccccc2C(=O)N1CCCN1CCN(CCCN2C(=O)c3ccccc3C2=O)CC1` [CBK260963], the viability at 28.5 h, 10 µM stood at 91.6%. Next, `Cc1ccc(S(=O)(=O)NC(CO)C(=O)O)cc1` (centres unmarked) [CBK260965]: 96%; `Cc1ccc(S(=O)(=O)NC(Cc2c[nH]c3ccccc23)C(=O)O)cc1` (centres unmarked) [CBK260966]: 103%. Consider `CN(C)Cc1cc(CN(C)C)c(O)c(C(C)(C)C)n1` [CBK260969], for which the viability at 28.5 h, 10 µM came to 90.6%.

In the case of `COc1ccc(C(=O)Nc2cccc3nsnc23)cc1OC` [CBK260973], the viability at 28.5 h, 10 µM is 92.2%. Regarding `O=C(O)c1c[nH]cn1` [CBK260978G], the viability at 28.5 h, 10 µM is 97%. Regarding `CCOC(=O)/C(=N/O)C(=O)c1c[nH]c2ccccc12` [CBK260979], the viability at 28.5 h, 10 µM amounted to 96%.

On to `Cc1nonc1NC(=O)Nc1ccncc1` [CBK260982], for which the viability at 28.5 h, 10 µM amounted to 94.7%. `CC(=O)Nc1ccc(NC(=O)CCCC(=O)O)cc1` [CBK260984]: the viability at 28.5 h, 10 µM was determined as 104%.

Turning to `N=C(N)SCP(=O)(c1ccccc1)c1ccccc1` [CBK260990], the viability at 28.5 h, 10 µM turned out to be 99.3%. On to `O=C(O)CCC(CCC(=O)O)C(=O)O` [CBK260994], for which the viability at 28.5 h, 10 µM worked out at 95.1%. The result for `C[Si]1(C)O[Si](C)(C)O[Si](C)(CC[Si](C)(C)c2ccccc2)O[Si](C)(C)O1` [CBK260998] reads 97%.

As for `c1cncc(C(N2CCOCC2)N2CCOCC2)c1` [CBK260999], the viability at 28.5 h, 10 µM was 94.5%.

As to `COc1ccc(C(N2CCOCC2)N2CCOCC2)cc1` [CBK261002], the viability at 28.5 h, 10 µM was 102%. The result for `CNC(=O)N(O)C1N(NC(=O)Nc2ccccc2)C(=S)SC1(C)C` (centres unmarked) [CBK261005] reads 94.9%; that for `O=[N+]([O-])c1ccc(NCCNCCO)c(Cl)c1` [CBK261006], 97.5%. Next, `CNc1c(C)cc([N+](C)(C)C)cc1C` [CBK261007I]: 95.3%. The result for `O=C(O)C1CC1(C(=O)O)C(=O)O` (centres unmarked) [CBK261009] reads 103%. Turning to `Cc1cc([N+](=O)[O-])cc[n+]1[O-]` [CBK261014], the viability at 28.5 h, 10 µM turned out to be 102%.

In the case of `c1ccc(Nc2[nH]nnc2-c2ccccc2)cc1` [CBK261015], the viability at 28.5 h, 10 µM stood at 116%. The result for `CC(=O)Nc1cc2nc3ccccc3nc2cc1NC(C)=O` [CBK261018] reads 92.6%; that for `O=C(NC(N1CCCCC1)C(Cl)(Cl)Cl)NC(N1CCCCC1)C(Cl)(Cl)Cl` (centres unmarked) [CBK261020], 98.2%. For `O=S(=O)(CCSc1ccc(Cl)cc1)Oc1ccccc1` [CBK261021], the viability at 28.5 h, 10 µM came to 102%. Consider `CC(C)(C)C(=O)NC(N(Cc1ccccc1)Cc1ccccc1)C(Cl)(Cl)Cl` (centres unmarked) [CBK261023], for which the viability at 28.5 h, 10 µM worked out at 97.7%.

For `CCCC(=O)NC(NC(=S)Nc1ccccc1Cl)C(Cl)(Cl)Cl` (centres unmarked) [CBK261026], the viability at 28.5 h, 10 µM came out at 106%. Turning to `COc1ccc(C(=O)NC(NC(=S)Nc2cccc3cccnc23)C(Cl)(Cl)Cl)cc1` (centres unmarked) [CBK261028], the viability at 28.5 h, 10 µM is 94.6%. For `CC(=O)Cc1ccccc1OCC(=O)O` [CBK261031], the viability at 28.5 h, 10 µM is 90.9%.

On to `NC(=O)COc1ccccc1OCC(N)=O` [CBK261032], for which the viability at 28.5 h, 10 µM worked out at 87.5%. In the case of `CC(C)(C)c1cc(C(=O)CSc2nnc(Nc3ccccc3)n2-c2ccccc2)cc(C(C)(C)C)c1O` [CBK261033], the viability at 28.5 h, 10 µM came to 94.1%. For `c1ccc2sc(CCSCCc3nc4ccccc4s3)nc2c1` [CBK261036], the viability at 28.5 h, 10 µM came to 104%.

For the compound `CN=C(S)N=C(Nc1ccccc1)c1ccccc1` [CBK261037], the viability at 28.5 h, 10 µM was determined as 89.1%. The result for `FC(F)(F)C1=NC(C(F)(F)F)=NP(N2CCOCC2)(N2CCOCC2)=N1` [CBK261042] reads 94.3%.

As for `COc1ccccc1NC(=O)C(C)N1C(=O)c2ccccc2C1=O` (centres unmarked) [CBK261043], the viability at 28.5 h, 10 µM stood at 92%. The result for `Cc1ccc(C(=O)NNC(=O)c2cccnc2)cc1` [CBK261045] reads 94%; that for `Cc1ccccc1C(=O)NC(NC(=S)Nc1sc2c(c1C(N)=O)CCCC2)C(Cl)(Cl)Cl` (centres unmarked) [CBK261047], 97.9%.

On to `NC(=O)c1c(NC(=S)NC(NC(=O)c2ccccc2)C(Cl)(Cl)Cl)sc2c1CCCC2` (centres unmarked) [CBK261048], for which the viability at 28.5 h, 10 µM is 90.6%. Next, `CC(C)CC(=O)NC(N=C(S)Nc1sc2c(c1C#N)CCCC2)C(Cl)(Cl)Cl` (centres unmarked) [CBK261049]: 85.2%; `CC(C)C(=O)NC(NC(=S)Nc1cccc2cccnc12)C(Cl)(Cl)Cl` (centres unmarked) [CBK261051]: 90%; `CC(=O)NC(NC(=S)Nc1sc2c(c1C#N)CCCC2)C(Cl)(Cl)Cl` (centres unmarked) [CBK261053]: 99.2%. Next, `CC(=O)NC(NC(=S)Nc1sc2c(c1C(N)=O)CCCC2)C(Cl)(Cl)Cl` (centres unmarked) [CBK261054]: 101%. Next, `NC(=O)c1c(NC(=S)NC(NC(=O)c2ccco2)C(Cl)(Cl)Cl)sc2c1CCCC2` (centres unmarked) [CBK261055]: 103%; `CN(C)C1=NC(N(C)C)=NP(N(C)C)(N(C)C)=N1` [CBK261057]: 91.8%. With `Cc1[nH]c(=O)[nH]c(=O)c1S(=O)(=O)N1CCOCC1` [CBK261060], the viability at 28.5 h, 10 µM is 96.1%. Next, `CC(=O)OC(C(=O)O)C(OC(C)=O)C(=O)O` (centres unmarked) [CBK261063]: 95.5%. For `C(=N\Nc1ccc2nn(-c3ccccc3)nc2c1)/c1c[nH]c2ccccc12` [CBK261064], the viability at 28.5 h, 10 µM was 91.6%. On to `NS(=O)(=O)c1ccc(NC(=S)NC(=O)/C=C/c2ccco2)cc1` [CBK261066], for which the viability at 28.5 h, 10 µM is 93%.

Turning to `NCCCCCCNC(=O)c1c(O)c2ccccc2oc1=O` [CBK261071], the viability at 28.5 h, 10 µM worked out at 97.9%. As for `Cc1ccc(CCSCC(=O)O)cn1` [CBK261072], the viability at 28.5 h, 10 µM is 95.3%. As for `O=C(c1ccc(O)cc1)c1ccc(C(=O)O)c(C(=O)O)c1` [CBK261075], the viability at 28.5 h, 10 µM worked out at 105%. Take `C[N+](C)(C)CCCCOC(c1ccccc1)c1ccccc1` [CBK261076I]: the viability at 28.5 h, 10 µM stood at 94.1%.

Take `CCC(/C=C1\Oc2ccc(OC)cc2N1C)=C\c1sc2ccccc2[n+]1CCCS(=O)(=O)[O-]` [CBK261080]: the viability at 28.5 h, 10 µM was 90.3%.
